Data: PubChem BioAssay (NCI)
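Dose response: 5 concentrations. Exposure: 48 h. Format: 96-well plates. Endpoint: linear interpolation; highest concentration if not reached. At the GI50, growth is halved. TGI is the concentration that stops growth completely.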

Legend:
Test in all cases: growth of human tumour cells (NCI), 48 h
COLO 205 colon = tested on: COLO 205 colon
EKVX NSCLC = tested on: EKVX NSCLC
HL-60(TB) leukemia = tested on: HL-60(TB) leukemia
HT29 colon = tested on: HT29 colon
M14 melanoma = tested on: M14 melanoma
NCI-H460 lung = tested on: NCI-H460 lung
OVCAR-4 ovarian = tested on: OVCAR-4 ovarian
RXF 393 renal = tested on: RXF 393 renal
SR leukemia = tested on: SR leukemia
UACC-62 melanoma = tested on: UACC-62 melanoma

Row | Compound | GI50 (COLO 205 colon) [µM] | TGI (COLO 205 colon) [µM] | GI50 (EKVX NSCLC) [µM] | TGI (EKVX NSCLC) [µM] | GI50 (HL-60(TB) leukemia) [µM] | TGI (HL-60(TB) leukemia) [µM] | GI50 (HT29 colon) [µM] | TGI (HT29 colon) [µM] | GI50 (M14 melanoma) [µM] | TGI (M14 melanoma) [µM] | GI50 (NCI-H460 lung) [µM] | TGI (NCI-H460 lung) [µM] | GI50 (OVCAR-4 ovarian) [µM] | TGI (OVCAR-4 ovarian) [µM] | GI50 (RXF 393 renal) [µM] | TGI (RXF 393 renal) [µM] | GI50 (SR leukemia) [µM] | TGI (SR leukemia) [µM] | GI50 (UACC-62 melanoma) [µM] | TGI (UACC-62 melanoma) [µM]
1 | C=C(C)CCC(C)N1CCC(N2CCC(C(=O)NCCc3ccccc3)CC2)CC1 (stereo not given) | 13.4 | 33.8 | 9.27 | > 100 | 25.7 | > 100 | 22.1 | > 100 | 15.4 | 31.1 | 37.8 | > 100 | 5.97 | 73 | 14.8 | 43 | 12.3 | 82.1 | 13.7 | 28.8
2 | CCCCCCCCCCCCC(=O)[O-].CCCCCCCCCCCCC(=O)[O-].CCCCCCCCCCCCC(=O)[O-].CCCCCCCCCCCCC(=O)[O-].[Mo+2].[Mo+2] | 19.3 | 46.4 | 19.7 | 35.8 | 2.82 | 7.8 | 12.6 | 27.1 | 11.7 | 27.8 | 17.1 | 60.1 | 10.2 | 24.2 | 12 | 26.1 | 5.83 | 29.8 | 11.7 | 26.9
3 | CC(=O)Oc1ccccc1C(=O)C1c2cccc(O)c2C(=O)c2c(O)cccc21 | – | 1.86 | – | 6.15 | – | 0.727 | – | 6.59 | – | 5.16 | – | 2.1 | – | 4.48 | – | 1.46 | – | 0.967 | – | 2.23
4 | COc1ccc2c(c1)nc(N)c1c3cccnc3cn21 | 0.0452 | 0.668 | 2.91 | > 100 | 0.0313 | 18.3 | 0.0351 | 1.88 | 0.039 | 27.9 | 0.0923 | 1.77 | 0.294 | > 100 | 0.0224 | 0.0777 | 0.0339 | 22.4 | 0.0541 | 22.1
5 | CCCCC[C@H]1C/C=C2/C(=O)C(Cl)=C[C@@H]2C/C=C\CCCC(=O)O[C@@H](CCCCC)C/C=C2/C(=O)C(Cl)=C[C@@H]2C/C=C\CCCC(=O)O1 | 0.316 | 0.687 | 0.543 | 1.76 | 0.429 | 1.27 | 0.46 | 1.44 | 0.39 | 1.07 | 0.405 | 1.02 | 0.461 | 1.79 | 0.297 | 0.576 | 0.159 | 1.35 | 0.297 | 0.62
6 | S=c1ssc(Sc2ccccn2)c1Cl | 19.2 | 38.7 | 12.5 | 30.3 | 3.56 | 9.78 | 3.43 | > 100 | 14 | 27 | 15.2 | 28.5 | 5.2 | > 100 | 16.9 | 32.6 | 1.7 | 4.64 | 15.3 | 28.6
7 | Cc1cccc(C(C)(C)C)c1NC(=O)C(=O)C(c1cnc2ccccc2n1)[N+](=O)[O-] (stereo not given) | – | > 100 | – | > 100 | – | > 100 | – | > 100 | – | > 100 | – | > 100 | – | > 100 | – | > 100 | – | > 100 | – | > 100
8 | NCc1ccc(-n2c(-c3nonc3N)nc3cnccc32)cc1 | 5.53 | > 25 | > 25 | > 25 | > 11.8 | > 25 | 7.58 | > 25 | > 25 | > 25 | 13.7 | > 25 | > 25 | > 25 | 1.76 | 11.3 | 2.67 | > 25 | > 25 | > 25
9 | CC(C)=CC(=O)CC(=O)C(=O)Nc1ccc(Cl)c(Cl)c1 | – | > 100 | – | > 100 | – | > 100 | – | > 100 | – | > 100 | – | > 100 | – | > 100 | – | > 100 | – | > 100 | – | > 100
